Laboratory results as given in paper PMC4685510, “A Cell Biologist’s Field Guide to Aurora Kinase Inhibitors” (Frontiers in Oncology, 2015).

Tests used:
Assay in all cases: biochemical
Format in all cases: biochemical
[1] = target: 363 human kinases (including Aurora A/B/C) (Homo sapiens, UniProt P06241); conditions: FYN, 500 nM
Source text: (§1) However, the Aurora A/B selectivity ratios derived from our in vitro and in vivo data can be compared to prioritize inhibitors.

[2] = target: 363 human kinases (including Aurora A/B/C) (Homo sapiens, UniProt P22455); conditions: FGFR4, [ATP] 100 µM, 500 nM
Source text: as §1

[3] = target: T1, 363 human kinases (including Aurora A/B/C) (Homo sapiens, UniProt P46734); conditions: MEK3, 500 nM
T1 sequence (P46734 1-347): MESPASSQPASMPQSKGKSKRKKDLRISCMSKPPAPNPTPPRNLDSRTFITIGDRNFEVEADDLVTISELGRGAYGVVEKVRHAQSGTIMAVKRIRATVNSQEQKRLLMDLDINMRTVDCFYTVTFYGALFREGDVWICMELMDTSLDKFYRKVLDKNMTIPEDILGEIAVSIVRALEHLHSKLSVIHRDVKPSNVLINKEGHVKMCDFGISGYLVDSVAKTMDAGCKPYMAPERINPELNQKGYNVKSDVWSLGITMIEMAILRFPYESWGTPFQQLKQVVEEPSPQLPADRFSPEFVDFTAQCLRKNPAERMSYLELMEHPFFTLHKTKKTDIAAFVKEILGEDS
Source text: as §1

[4] = target: 363 human kinases (including Aurora A/B/C) (Homo sapiens, UniProt P51617); conditions: IRAK1, 500 nM
Source text: as §1

[5] = target: 363 human kinases (including Aurora A/B/C) (Homo sapiens, UniProt P53355); conditions: DAPK1, [ATP] 10 µM, 500 nM
Chain of 363 human kinases (including Aurora A/B/C) (Homo sapiens, UniProt P53355) (P53355 whole entry): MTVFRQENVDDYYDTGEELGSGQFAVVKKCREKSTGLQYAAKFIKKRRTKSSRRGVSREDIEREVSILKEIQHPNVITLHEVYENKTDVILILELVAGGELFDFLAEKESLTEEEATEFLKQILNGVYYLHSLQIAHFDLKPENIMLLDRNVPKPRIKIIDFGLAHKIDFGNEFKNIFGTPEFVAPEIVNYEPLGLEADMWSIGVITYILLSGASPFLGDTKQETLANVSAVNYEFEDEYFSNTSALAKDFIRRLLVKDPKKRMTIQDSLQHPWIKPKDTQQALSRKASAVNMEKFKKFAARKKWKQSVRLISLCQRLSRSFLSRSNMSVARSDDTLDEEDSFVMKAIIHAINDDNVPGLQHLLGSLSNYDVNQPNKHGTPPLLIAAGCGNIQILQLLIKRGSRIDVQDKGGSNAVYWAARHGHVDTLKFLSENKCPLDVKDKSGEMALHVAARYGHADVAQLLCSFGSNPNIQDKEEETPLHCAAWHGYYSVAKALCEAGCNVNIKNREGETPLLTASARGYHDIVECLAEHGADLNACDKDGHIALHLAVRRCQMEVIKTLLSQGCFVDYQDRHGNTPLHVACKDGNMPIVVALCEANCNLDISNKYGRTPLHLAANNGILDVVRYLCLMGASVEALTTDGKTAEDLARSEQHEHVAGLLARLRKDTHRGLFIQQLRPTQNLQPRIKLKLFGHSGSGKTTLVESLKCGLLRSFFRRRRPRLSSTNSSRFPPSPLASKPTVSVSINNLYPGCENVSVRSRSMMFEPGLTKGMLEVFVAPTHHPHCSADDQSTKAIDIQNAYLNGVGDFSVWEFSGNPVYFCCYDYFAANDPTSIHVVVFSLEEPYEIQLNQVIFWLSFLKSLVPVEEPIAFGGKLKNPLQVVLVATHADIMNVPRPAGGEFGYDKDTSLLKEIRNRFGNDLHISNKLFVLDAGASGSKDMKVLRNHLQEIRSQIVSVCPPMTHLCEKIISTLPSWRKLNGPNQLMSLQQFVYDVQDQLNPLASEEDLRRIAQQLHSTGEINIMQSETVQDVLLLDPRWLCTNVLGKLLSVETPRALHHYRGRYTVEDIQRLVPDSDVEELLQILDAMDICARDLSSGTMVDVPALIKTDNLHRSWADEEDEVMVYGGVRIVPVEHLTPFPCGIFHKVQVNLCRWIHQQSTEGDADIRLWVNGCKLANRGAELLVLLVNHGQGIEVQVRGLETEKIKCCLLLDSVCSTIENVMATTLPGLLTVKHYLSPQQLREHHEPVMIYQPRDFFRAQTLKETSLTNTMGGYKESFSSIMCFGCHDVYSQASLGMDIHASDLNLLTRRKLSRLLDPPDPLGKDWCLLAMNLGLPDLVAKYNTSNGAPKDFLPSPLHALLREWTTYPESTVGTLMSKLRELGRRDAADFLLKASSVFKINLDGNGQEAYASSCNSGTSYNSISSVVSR
Source text: as §1

[6] = target: 363 human kinases (including Aurora A/B/C) (Homo sapiens, UniProt Q00536); conditions: CDK16/cyclin Y (PCTAIRE), [ATP] 15 µM, 500 nM
Source text: as §1

[7] = target: 363 human kinases (including Aurora A/B/C) (Homo sapiens, UniProt Q13557); conditions: CAMK2d, [ATP] 30 µM, 500 nM
Source text: as §1

[8] = target: 363 human kinases (including Aurora A/B/C) (Homo sapiens, UniProt Q15208); conditions: STK38/NDR1, 500 nM
Chain of 363 human kinases (including Aurora A/B/C) (Homo sapiens, UniProt Q15208) (Q15208 whole entry): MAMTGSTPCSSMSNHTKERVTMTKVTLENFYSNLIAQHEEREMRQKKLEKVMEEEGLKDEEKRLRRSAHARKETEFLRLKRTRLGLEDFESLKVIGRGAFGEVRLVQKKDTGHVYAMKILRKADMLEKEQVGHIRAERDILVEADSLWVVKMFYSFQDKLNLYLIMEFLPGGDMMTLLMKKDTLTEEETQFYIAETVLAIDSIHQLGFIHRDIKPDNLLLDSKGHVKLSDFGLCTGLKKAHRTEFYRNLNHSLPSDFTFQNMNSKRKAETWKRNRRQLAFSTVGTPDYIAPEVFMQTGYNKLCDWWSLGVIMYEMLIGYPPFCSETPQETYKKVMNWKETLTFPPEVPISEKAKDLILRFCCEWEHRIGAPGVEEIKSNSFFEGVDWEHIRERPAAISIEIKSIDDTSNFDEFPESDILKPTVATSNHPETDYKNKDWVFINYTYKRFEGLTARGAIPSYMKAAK
Source text: as §1

[9] = target: 363 human kinases (including Aurora A/B/C) (Homo sapiens, UniProt Q6DT37); conditions: DMPK2, [ATP] 2.5 µM, 500 nM
Source text: as §1

[10] = target: 363 human kinases (including Aurora A/B/C) (Homo sapiens, UniProt Q6P5Z2); conditions: PKN3/PRK3, 500 nM
Source text: as §1

[11] = target: 363 human kinases (including Aurora A/B/C) (Homo sapiens, UniProt Q8N4C8); conditions: MINK/MINK1, 500 nM
Source text: as §1

[12] = target: 363 human kinases (including Aurora A/B/C) (Homo sapiens, UniProt Q96RG2); conditions: PASK, 500 nM
Source text: as §1

[13] = target: 363 human kinases (including Aurora A/B/C) (Homo sapiens, UniProt Q9H4B4); conditions: PLK3, 500 nM
Chain of 363 human kinases (including Aurora A/B/C) (Homo sapiens, UniProt Q9H4B4) (Q9H4B4 whole entry): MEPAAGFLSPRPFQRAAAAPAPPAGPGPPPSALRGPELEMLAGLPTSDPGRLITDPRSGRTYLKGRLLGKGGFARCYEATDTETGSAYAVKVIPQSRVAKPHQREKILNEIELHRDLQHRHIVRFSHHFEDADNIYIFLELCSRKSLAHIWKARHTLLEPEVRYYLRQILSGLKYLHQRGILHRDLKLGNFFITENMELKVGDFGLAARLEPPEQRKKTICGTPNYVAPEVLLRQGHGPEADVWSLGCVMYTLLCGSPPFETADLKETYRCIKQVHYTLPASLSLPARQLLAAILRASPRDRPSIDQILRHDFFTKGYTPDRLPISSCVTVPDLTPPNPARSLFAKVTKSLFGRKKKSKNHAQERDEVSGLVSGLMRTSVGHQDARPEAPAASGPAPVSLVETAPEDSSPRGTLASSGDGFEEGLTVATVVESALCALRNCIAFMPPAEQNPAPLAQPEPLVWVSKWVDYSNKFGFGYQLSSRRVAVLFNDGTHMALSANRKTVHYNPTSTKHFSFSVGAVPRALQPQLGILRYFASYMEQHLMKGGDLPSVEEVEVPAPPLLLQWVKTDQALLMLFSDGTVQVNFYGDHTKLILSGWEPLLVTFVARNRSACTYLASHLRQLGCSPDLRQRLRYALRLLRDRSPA
Source text: as §1

[14] = target: T2, 363 human kinases (including Aurora A/B/C) (Homo sapiens, UniProt Q9NR20); conditions: DYRK4, [ATP] 2.5 µM, 500 nM
T2 sequence (Q9NR20 1-520): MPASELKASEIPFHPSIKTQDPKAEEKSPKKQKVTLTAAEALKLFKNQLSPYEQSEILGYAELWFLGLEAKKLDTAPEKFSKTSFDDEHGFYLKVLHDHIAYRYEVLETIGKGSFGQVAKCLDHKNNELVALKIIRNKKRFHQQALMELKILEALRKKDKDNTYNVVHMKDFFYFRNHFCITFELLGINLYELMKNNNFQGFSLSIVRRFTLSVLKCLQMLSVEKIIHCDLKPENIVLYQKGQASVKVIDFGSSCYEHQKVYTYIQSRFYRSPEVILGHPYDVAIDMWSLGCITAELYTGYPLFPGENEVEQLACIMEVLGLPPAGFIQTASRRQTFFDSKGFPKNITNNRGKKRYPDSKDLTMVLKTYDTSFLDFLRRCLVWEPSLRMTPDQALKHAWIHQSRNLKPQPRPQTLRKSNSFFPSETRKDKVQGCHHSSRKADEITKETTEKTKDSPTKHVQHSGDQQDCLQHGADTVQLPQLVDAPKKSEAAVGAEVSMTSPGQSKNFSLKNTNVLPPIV
Source text: as §1

[15] = target: T3, 363 human kinases (including Aurora A/B/C) (Homo sapiens, UniProt Q9NWZ3); conditions: IRAK4, 500 nM
T3 sequence (Q9NWZ3 1-460): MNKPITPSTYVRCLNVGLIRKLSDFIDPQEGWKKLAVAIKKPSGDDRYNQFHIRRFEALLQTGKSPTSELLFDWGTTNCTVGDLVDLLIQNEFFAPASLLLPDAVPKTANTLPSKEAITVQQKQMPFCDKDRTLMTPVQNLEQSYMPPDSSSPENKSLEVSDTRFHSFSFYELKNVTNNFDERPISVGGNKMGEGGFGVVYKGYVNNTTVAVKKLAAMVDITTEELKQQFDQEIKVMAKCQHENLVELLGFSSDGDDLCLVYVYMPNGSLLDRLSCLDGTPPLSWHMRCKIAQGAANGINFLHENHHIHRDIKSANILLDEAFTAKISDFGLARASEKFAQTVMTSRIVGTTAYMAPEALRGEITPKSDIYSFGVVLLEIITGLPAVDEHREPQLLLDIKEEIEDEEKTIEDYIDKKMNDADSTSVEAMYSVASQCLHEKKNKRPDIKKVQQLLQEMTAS
Source text: as §1

[16] = target: 363 human kinases (including Aurora A/B/C) (Homo sapiens, UniProt Q9P289); conditions: MST4, 500 nM
Chain of 363 human kinases (including Aurora A/B/C) (Homo sapiens, UniProt Q9P289) (Q9P289 whole entry): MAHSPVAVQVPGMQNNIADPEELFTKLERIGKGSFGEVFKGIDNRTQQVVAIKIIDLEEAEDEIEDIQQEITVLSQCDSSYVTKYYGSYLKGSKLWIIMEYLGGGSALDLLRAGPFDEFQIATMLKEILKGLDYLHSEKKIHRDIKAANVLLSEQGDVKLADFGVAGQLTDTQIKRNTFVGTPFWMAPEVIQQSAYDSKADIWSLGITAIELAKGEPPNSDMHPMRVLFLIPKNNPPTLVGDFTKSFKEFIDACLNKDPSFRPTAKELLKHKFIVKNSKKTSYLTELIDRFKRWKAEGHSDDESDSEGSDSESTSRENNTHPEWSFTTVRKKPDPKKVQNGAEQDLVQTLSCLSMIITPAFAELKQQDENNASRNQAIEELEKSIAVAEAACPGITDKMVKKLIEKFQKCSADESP
Source text: as §1

[17] = target: 363 human kinases (including Aurora A/B/C) (Homo sapiens, UniProt Q9Y5S2); conditions: MRCKb/CDC42BPB, 500 nM
Chain of 363 human kinases (including Aurora A/B/C) (Homo sapiens, UniProt Q9Y5S2) (Q9Y5S2 whole entry): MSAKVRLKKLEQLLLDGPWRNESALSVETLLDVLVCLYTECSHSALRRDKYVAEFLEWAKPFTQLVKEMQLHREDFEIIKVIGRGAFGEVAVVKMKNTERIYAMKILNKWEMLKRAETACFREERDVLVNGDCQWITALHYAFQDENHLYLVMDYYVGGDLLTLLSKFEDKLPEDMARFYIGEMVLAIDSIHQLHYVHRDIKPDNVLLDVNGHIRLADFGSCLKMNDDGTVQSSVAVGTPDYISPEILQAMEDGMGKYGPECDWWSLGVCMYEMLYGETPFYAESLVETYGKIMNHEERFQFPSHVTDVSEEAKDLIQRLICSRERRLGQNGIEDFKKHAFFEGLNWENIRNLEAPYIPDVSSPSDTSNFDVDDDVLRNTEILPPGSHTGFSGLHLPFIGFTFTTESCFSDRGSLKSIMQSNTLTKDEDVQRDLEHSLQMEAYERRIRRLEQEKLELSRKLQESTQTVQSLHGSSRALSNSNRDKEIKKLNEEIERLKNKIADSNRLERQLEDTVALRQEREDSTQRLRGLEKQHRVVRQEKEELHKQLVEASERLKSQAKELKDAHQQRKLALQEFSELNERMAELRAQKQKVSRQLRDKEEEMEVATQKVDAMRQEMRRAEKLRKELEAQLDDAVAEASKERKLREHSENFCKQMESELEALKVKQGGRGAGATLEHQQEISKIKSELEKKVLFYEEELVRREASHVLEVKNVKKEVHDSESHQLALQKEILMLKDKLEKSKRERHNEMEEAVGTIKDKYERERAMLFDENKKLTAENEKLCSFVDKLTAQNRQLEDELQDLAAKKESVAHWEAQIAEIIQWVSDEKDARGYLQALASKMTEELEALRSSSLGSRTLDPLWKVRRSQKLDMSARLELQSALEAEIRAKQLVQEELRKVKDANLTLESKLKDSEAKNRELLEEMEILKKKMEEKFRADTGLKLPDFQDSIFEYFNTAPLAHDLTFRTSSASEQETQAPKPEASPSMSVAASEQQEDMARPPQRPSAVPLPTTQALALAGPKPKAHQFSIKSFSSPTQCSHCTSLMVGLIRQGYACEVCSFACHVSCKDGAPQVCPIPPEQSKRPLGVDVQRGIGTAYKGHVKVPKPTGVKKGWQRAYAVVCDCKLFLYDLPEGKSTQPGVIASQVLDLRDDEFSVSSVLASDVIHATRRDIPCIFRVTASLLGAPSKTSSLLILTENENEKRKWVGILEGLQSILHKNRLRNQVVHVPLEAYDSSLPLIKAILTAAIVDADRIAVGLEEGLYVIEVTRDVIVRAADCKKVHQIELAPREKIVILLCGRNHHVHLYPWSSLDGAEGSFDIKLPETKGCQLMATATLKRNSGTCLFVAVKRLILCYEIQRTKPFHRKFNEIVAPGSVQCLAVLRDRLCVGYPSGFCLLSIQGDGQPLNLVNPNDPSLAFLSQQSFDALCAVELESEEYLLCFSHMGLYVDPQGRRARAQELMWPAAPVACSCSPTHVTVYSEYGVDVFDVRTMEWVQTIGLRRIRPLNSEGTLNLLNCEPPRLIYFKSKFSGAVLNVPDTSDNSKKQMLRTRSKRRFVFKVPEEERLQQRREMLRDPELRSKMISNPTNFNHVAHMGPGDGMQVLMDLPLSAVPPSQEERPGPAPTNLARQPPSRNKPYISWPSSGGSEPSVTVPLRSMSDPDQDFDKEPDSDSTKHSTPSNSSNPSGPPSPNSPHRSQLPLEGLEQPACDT
Source text: as §1

[18] = read-out: % Enzyme Activity (relative to DMSO controls)

With `O=C(c1cccc(Cl)c1F)N1CCN(Cc2cccc(Nc3nccs3)n2)CC1` [MK-8745] the “% Enzyme Activity (relative to DMSO controls)” value [1] was 57.68%, the remaining activity at 0.5 µM [1, 18] was 57.8% and the “% Enzyme Activity (relative to DMSO controls)” value [2] was 106.52%. For the same compound, the remaining activity at 0.5 µM [2, 18] was 118%, the “% Enzyme Activity (relative to DMSO controls)” value [3] was 72.05% and the remaining activity at 0.5 µM [3, 18] was 75.7%. The “% Enzyme Activity (relative to DMSO controls)” value [4] was 18.29%, the remaining activity at 0.5 µM [4, 18] was 19% and the “% Enzyme Activity (relative to DMSO controls)” value [5] was 98.77%. For the same compound, the remaining activity at 0.5 µM [5, 18] was 101%, the “% Enzyme Activity (relative to DMSO controls)” value [6] was 110.95% and the remaining activity at 0.5 µM [6, 18] was 111%. The “% Enzyme Activity (relative to DMSO controls)” value [7] was 97.95%, the remaining activity at 0.5 µM [7, 18] was 98.5% and the “% Enzyme Activity (relative to DMSO controls)” value [8] was 90.44%. The remaining activity at 0.5 µM [8, 18] was 91.2%, the “% Enzyme Activity (relative to DMSO controls)” value [9] was 124.49% and the remaining activity at 0.5 µM [9, 18] was 126%. The “% Enzyme Activity (relative to DMSO controls)” value [10] was 100.01%, the remaining activity at 0.5 µM [10, 18] was 100% and the “% Enzyme Activity (relative to DMSO controls)” value [11] was 82.81%. For the same compound, the remaining activity at 0.5 µM [11, 18] was 86.8%, the “% Enzyme Activity (relative to DMSO controls)” value [12] was 101.46% and the remaining activity at 0.5 µM [12, 18] was 103%. The “% Enzyme Activity (relative to DMSO controls)” value [13] was 99.37%, the remaining activity at 0.5 µM [13, 18] was 102% and the “% Enzyme Activity (relative to DMSO controls)” value [14] was 88.59%. The remaining activity at 0.5 µM [14, 18] was 89.1%, the “% Enzyme Activity (relative to DMSO controls)” value [15] was 79.25% and the remaining activity at 0.5 µM [15, 18] was 79.4%. For the same compound, the “% Enzyme Activity (relative to DMSO controls)” value [16] was 78.55%, the remaining activity at 0.5 µM [16, 18] was 87.2% and the “% Enzyme Activity (relative to DMSO controls)” value [17] was 102.30%. For the same compound, the remaining activity at 0.5 µM [17, 18] was 102%.
